{"source": "patent US4239779A", "about": "“Use of phenylglyoxylic acids and derivatives thereof in the treatment of ischemic heart disease” (Pfizer Inc., priority 1979, dated 1980)", "key": {"[1]": {"system": "anesthetized beagle dogs", "assay": "Myocardial blood flow and metabolism in fasted, closed-chest, anesthetized, electrically paced beagle dogs", "format": "in vivo, dog", "settings": "0.02 to 0.1 millimole/kg intravenously; in the presence and absence of isoprenaline", "experimental": "The ability of compounds of formula (I) to reduce oxygen demand and affect the relative utilization of carbohydrate and lipid metabolites in the heart may be assessed by measuring the effect of the compounds on myocardial blood flow and metabolism in fasted, closed-chest, anesthetized beagle dogs, with cardiac catheterization to enable simultaneous sampling of coronary sinus and arterial blood to be carried out. Coronary sinus blood flow is measured by the hydrogen gas clearance technique described by Aukland et al (Circulation Res. 1964, 14, 164). The heart is paced electrically at 155 beats/min. and recordings of hemodynamic parameters (blood pressure, left ventricular pressure and the first derivative of the latter) are made continuously. Control measurements of coronary blood flow are made and samples of blood taken at 40 min. intervals, both in an untreated animal and in the same animal dosed with an infusion of isoprenaline ([…].), which both stimulates cardiac contraction and increases plasma free fatty acid levels. The compound of formula (I) is then administered intravenously and measurements are made and samples taken again, 40 minutes and 90 minutes later. The blood samples from the artery and coronary sinus are analyzed for oxyhemoglobin, pyruvate and free fatty acid (FFA) content, differences between those of the arterial and coronary sinus blood, when multiplied by coronary blood flow, being a measure of oxygen consumption, pyruvate uptake and FFA uptake by the myocardium respectively."}, "[2]": {"system": "pyruvate dehydrogenase (PDH)", "assay": "Proportion of active pyruvate dehydrogenase (PDHa/PDHt) in hearts of fat-fed rats after dosing", "format": "in vivo", "settings": "rat heart", "experimental": "(2) Rats fed on a high fat diet as in test (1) (a), are treated either with placebo or with the compound of formula (I), by subcutaneous or intravenous injection or by oral administration, and at various times after treatment the rat hearts are removed and homogenized, under conditions which minimize changes in the proportion of the pyruvate dehydrogenase enzyme which is present in the active form, as described by Whitehouse and Randle (Biochem. J. 1973, 134, 651). The total amount of the enzyme present (PDHt) and the amount which is present in the active form (PDHa) are assessed by a method similar to that described by Taylor et al (J. Biol. Chem. 1973, 248, 73). The fat-feeding process is found to depress the ratio PDHa/PDHt from a normal value of about 0.7 to a value in the range from 0.05 to 0.2."}}}
{"smiles": "O=C(O)C(=O)c1ccc(O)cc1", "note": "[OH, H, OH, p-hydroxyphenylglyoxylic acid]", "values": [{"measurement": "myocardial blood flow", "setting": "[1]", "result": "increased"}, {"measurement": "myocardial oxygen consumption", "setting": "[1]", "result": "decreased"}, {"measurement": "myocardial pyruvate uptake", "setting": "[1]", "result": "increases"}, {"measurement": "period of increased myocardial pyruvate uptake after dosing", "setting": "[1]", "result": "at least 90 minutes"}]}
{"smiles": "CSc1ccc(C(=O)C(=O)O)cc1", "note": "[SCH3, H, OH, p-(methylthio)phenylglyoxylic acid]", "values": [{"measurement": "PDHa/PDHt ratio at 1.5 hours", "setting": "[2]; dose 0.6 mM/kg subcutaneous, placebo ratio 0.12", "result": 0.24}, {"measurement": "PDHa/PDHt ratio at 1.5 hours", "setting": "[2]; dose 1.2 mM/kg subcutaneous, placebo ratios 0.11-0.24", "result": 0.47}]}
